Assay [1] concerns the target PIM (PIM-1, PIM-2, and/or PIM-3). The experiment in a line: PIM-1, PIM-2 and PIM-3 inhibition, biochemical chemiluminescence assays (Kinase Glo, IC50 determination). The note with it: Table 1 activity class; PIM refers to PIM-1, PIM-2, and/or PIM-3; read-out: PIM IC50 (Activity B). A general note: In Kinase-Glo more light means more ATP remaining.
The next assay addresses CK2 (Homo sapiens, UniProt P68400). In words: CK2 inhibition, biochemical chemiluminescence holoenzyme assay (Kinase Glo, IC50 determination). Particulars: Table 1 activity class; symbol given only if active; read-out: CK2 IC50 (Activity C). In outline: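 Holoenzyme CK2 assay; compounds pre-incubated with substrate and enzyme, then reacted 150 min at 24-27° C. Remaining ATP measured as luminescence with Kinase Glo, and IC50 derived from the signal.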

A value given as a limit tells only on which side of the number the result lay.

Sequence of CK2 (P68400 whole entry): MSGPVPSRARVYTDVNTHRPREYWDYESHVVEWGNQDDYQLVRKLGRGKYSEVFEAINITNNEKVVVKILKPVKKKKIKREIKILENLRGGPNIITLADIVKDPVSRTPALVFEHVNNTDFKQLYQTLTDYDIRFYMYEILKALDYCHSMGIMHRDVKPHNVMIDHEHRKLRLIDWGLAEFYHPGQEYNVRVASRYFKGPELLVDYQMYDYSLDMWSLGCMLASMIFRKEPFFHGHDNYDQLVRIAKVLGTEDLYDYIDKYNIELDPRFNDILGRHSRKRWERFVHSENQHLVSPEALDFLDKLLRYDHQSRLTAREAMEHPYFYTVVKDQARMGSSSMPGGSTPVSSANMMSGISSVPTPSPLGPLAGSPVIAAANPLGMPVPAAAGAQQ
Sequence of CK2 (P67870 whole entry partner): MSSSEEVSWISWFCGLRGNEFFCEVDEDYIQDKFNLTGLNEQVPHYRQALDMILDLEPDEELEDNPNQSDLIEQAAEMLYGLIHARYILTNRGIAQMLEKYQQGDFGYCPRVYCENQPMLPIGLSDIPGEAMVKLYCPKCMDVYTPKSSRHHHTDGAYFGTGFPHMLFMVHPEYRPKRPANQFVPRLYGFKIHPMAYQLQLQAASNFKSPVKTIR

For orientation: IC50 means the point on the concentration scale where inhibition reaches its midpoint. Consider `O=C(C1CCOC1)N1CCC(c2nc3c(oc4ccc(Br)cc43)c(=O)[nH]2)CC1` (stereo not shown) [Compound 233, 8-bromo-2-[1-(tetrahydrofuran-3-ylcarbonyl)piperidin-4-yl][1]benzofuro[3,2-d]pyrimidin-4(3H)-one], for which the IC50 (in assay [1]; at CK2) was less than 10 µM each time.

Regarding `CN(C)Cc1ccc(-c2nc3c(oc4ccc(Br)cc43)c(=O)[nH]2)cc1` [Compound 358, 8-Bromo-2-{4-[(dimethylamino)methyl]phenyl}[1]benzofuro[3,2-d]pyrimidin-4(3H)-one], the IC50 (in assay [1]; at CK2) was less than 10 µM in each case.

Consider `CCC(c1nc2c(oc3ccc(Br)cc32)c(=O)[nH]1)N1CCN(C)CC1` (stereo not shown) [Compound 172, 8-bromo-2-[1-(4-methylpiperazin-1-yl)propyl][1]benzofuro[3,2-d]pyrimidin-4(3H)-one], for which the IC50 (in assay [1]; on CK2) was less than 10 µM each time.

Regarding `CN(C)CCCCNc1ccc(-c2nc3c(oc4ccc(Br)cc43)c(=O)[nH]2)c(Cl)c1` [Compound 136, 8-bromo-2-(2-chloro-4-{[4-(dimethylamino)butyl]amino}phenyl)[1]benzofuro[3,2-d]pyrimidin-4(3H)-one], the IC50 (in assay [1]; on CK2) was less than 10 µM throughout.

On to `O=c1[nH]c(COc2ccccc2)nc2c1oc1ccc(Br)cc12` [Compound 15, 8-bromo-2-[(phenyloxy)methyl][1]benzofuro[3,2-d]pyrimidin-4(3H)-one], for which the IC50 (in assay [1]; on CK2) was less than 10 µM each time.

`O=C1CC(c2nc3c(oc4ccc(Br)cc43)c(=O)[nH]2)CN1C1CCNCC1` (stereo not shown) [Compound 304, 8-Bromo-2-(5-oxo-1-piperidin-4-ylpyrrolidin-3-yl)[1]benzofuro[3,2-d]pyrimidin-4(3H)-one]: the IC50 (in assay [1]; on CK2) was less than 10 µM throughout.

With `O=c1[nH]c(NCCO)nc2c1oc1ccc(Br)cc12` [Compound 309, 8-Bromo-2-[(2-hydroxyethyl)amino][1]benzofuro[3,2-d]pyrimidin-4(3H)-one], the IC50 (in assay [1]; at CK2) was less than 10 µM throughout.

For the compound `O=C(Nc1ccncc1)Nc1ccc(-c2nc3c(oc4ccc(Br)cc43)c(=O)[nH]2)c(Cl)c1` [Compound 415, 1-[4-(8-bromo-4-oxo-3,4-dihydro[1]benzofuro[3,2-d]pyrimidin-2-yl)-3-chlorophenyl]-3-pyridin-4-ylurea], the IC50 (in assay [1]; at CK2) was less than 10 µM each time.

As for `COc1ccc2oc3c(=O)[nH]c(-c4ccncc4Cl)nc3c2c1` [Compound 152, 2-(3-chloropyridin-4-yl)-8-(methyloxy)[1]benzofuro[3,2-d]pyrimidin-4(3H)-one], the IC50 (in assay [1]; at CK2) was less than 10 µM throughout.

Consider `CN1CCN(CC(C)(C)NCc2nc3c(oc4ccc(Br)cc43)c(=O)[nH]2)CC1` [Compound 212, 8-bromo-2-({[1,1-dimethyl-2-(4-methylpiperazin-1-yl)ethyl]amino}methyl)[1]benzofuro[3,2-d]pyrimidin-4(3H)-one], for which the IC50 (in assay [1]; on CK2) was less than 10 µM in each case.

As for `CC(C)(C)OC(=O)N1CCOC(c2nc3c(oc4ccc(Br)cc43)c(=O)[nH]2)C1` (stereo not shown) [Compound 297, 1,1-Dimethylethyl 2-(8-bromo-4-oxo-3,4-dihydro[1]benzofuro[3,2-d]pyrimidin-2-yl)morpholine-4-carboxylate], the IC50 (in assay [1]; on CK2) was less than 10 µM throughout.

In the case of `COc1ccc(CNc2ccc3oc4c(=O)[nH]c(CN5CC[C@H](O)C5)nc4c3c2)cc1` [Compound 468, 2-{[(3S)-3-hydroxypyrrolidin-1-yl]methyl}-8-({[4-(methyloxy)phenyl]methyl}amino)[1]benzofuro[3,2-d]pyrimidin-4(3H)-one], the IC50 (in assay [1]; at CK2) was less than 10 µM throughout.

In the case of `CN(C)CCN1CCN(c2nc3c(oc4ccc(Br)cc43)c(=O)[nH]2)CC1` [Compound 227, 8-bromo-2-{4-[2-(dimethylamino)ethyl]piperazin-1-yl}[1]benzofuro[3,2-d]pyrimidin-4(3H)-one], the IC50 (in assay [1]; at CK2) was less than 10 µM throughout.

For `NCc1cc(Cl)c(-c2nc3c(oc4ccc(Br)cc43)c(=O)[nH]2)cc1F` [Compound 211, 2-[4-(aminomethyl)-2-chloro-5-fluorophenyl]-8-bromo[1]benzofuro[3,2-d]pyrimidin-4(3H)-one], the IC50 (in assay [1]; on CK2) was less than 10 µM each time.

For the compound `O=C(NCc1ccncc1)C1CCN(Cc2nc3c(oc4ccc(Br)cc43)c(=O)[nH]2)C1` (stereo not shown) [Compound 325, 1-[(8-bromo-4-oxo-3,4-dihydro[1]benzofuro[3,2-d]pyrimidin-2-yl)methyl]-N-(pyridin-4-ylmethyl)pyrrolidine-3-carboxamide], the IC50 (in assay [1]; on CK2) was less than 10 µM each time.

For `O=C1CC(O)CN1Cc1nc2c(oc3ccc(Br)cc32)c(=O)[nH]1` (stereo not shown) [Compound 286, 8-bromo-2-[(4-hydroxy-2-oxopyrrolidin-1-yl)methyl][1]benzofuro[3,2-d]pyrimidin-4(3H)-one], the IC50 (in assay [1]; at CK2) was less than 10 µM in each case.

Consider `CN(C)C1CCN(Cc2nc3c(oc4ccc(Br)cc43)c(=O)[nH]2)C1` (stereo not shown) [Compound 17, 8-bromo-2-{[3-(dimethylamino)pyrrolidin-1-yl]methyl}[1]benzofuro[3,2-d]pyrimidin-4(3H)-one], for which the IC50 (in assay [1]; on CK2) was less than 10 µM throughout.

`O=c1[nH]c(-c2ncc[nH]2)nc2c1oc1ccc(Br)cc12` [Compound 85, 8-bromo-2-(1H-imidazol-2-yl)[1]benzofuro[3,2-d]pyrimidin-4(3H)-one]: the IC50 (in assay [1]; on CK2) was less than 10 µM each time.

With `COCCN1CCN(Cc2nc3c(oc4ccc(Br)cc43)c(=O)[nH]2)CC1` [Compound 151, 8-bromo-2-({4-[2-(methyloxy)ethyl]piperazin-1-yl}methyl)[1]benzofuro[3,2-d]pyrimidin-4(3H)-one], the IC50 (in assay [1]; on CK2) was less than 10 µM each time.

For `CC(C)(NCc1nc2c(oc3ccc(Br)cc32)c(=O)[nH]1)C(N)=O` [Compound 177, N-2-[(8-bromo-4-oxo-3,4-dihydro[1]benzofuro[3,2-d]pyrimidin-2-yl)methyl]-2-methylalaninamide], the IC50 (in assay [1]; on CK2) was less than 10 µM each time.

Turning to `Nc1ncc(Cl)c(-c2nc3c(oc4ccc(Br)cc43)c(=O)[nH]2)n1` [Compound 243, 2-(2-amino-5-chloropyrimidin-4-yl)-8-bromo[1]benzofuro[3,2-d]pyrimidin-4(3H)-one], the IC50 (in assay [1]; on CK2) was less than 10 µM in each case.

In the case of `CC(C)COc1ccc2oc3c(=O)[nH]c(CN4CC[C@H](O)C4)nc3c2c1` [Compound 477, 2-{[(3S)-3-hydroxypyrrolidin-1-yl]methyl}-8-[(2-methylpropyl)oxy][1]benzofuro[3,2-d]pyrimidin-4(3H)-one], the IC50 (in assay [1]; at CK2) was less than 10 µM each time.

With `O=c1[nH]c(CN2CCC(N3CCOCC3)CC2)nc2c1oc1ccc(Br)cc12` [Compound 257, 8-bromo-2-[(4-morpholin-4-ylpiperidin-1-yl)methyl][1]benzofuro[3,2-d]pyrimidin-4(3H)-one], the IC50 (in assay [1]; on CK2) was less than 10 µM each time.
